In patent US20220062345A1, “PHARMACEUTICAL COMPOSITION CONTAINING PROTEIN KINASE C ACTIVATOR-TREATED STEM CELLS OR CULTURE THEREOF FOR PREVENTING OR TREATING AUTOIMMUNE DISEASES” (CORESTEM CO.,LTD., priority 2018, published 2022):

Tests used:
PKC-α and δ = assay: PKC signaling in MSC by western blot; type: cell-based, human; settings: PMA treated to MSC, 24 hours
Description: Cells were lysed in ice using a cell lysis buffer (Cell Signaling Technology, Danvers, Mass., USA). Proteins were obtained by centrifugation at 12,000 rpm for 15 minutes at 4° C. The proteins were quantified using the Bradford reagent, and electrophoresis was performed at 75V with 20 μg of the proteins by using an SDS-polyacrylamide gel. After the SDS-polyacrylamide gel was transferred to a PVDF membrane at 95V for 90 minutes, 5% nonfat dry milk was added to TBS (TTBS) including 0.5% Tween 20 and blocked for 1 hour. After blocking, the membrane was placed in 5% BSA/TTBS including a primary antibody and shaken at 4° C. for one day. […] After washing the membrane with TTBS and reacting the membrane with enhanced chemiluminescence (ECL, Amersham Pharmacia Biotech, Piscataway, N.J., USA), the degree of protein expression was measured using a ChemiDoc™ XRS+ machine (Bio-Rad, CA, USA).
PMA was treated to MSC, and after 24 hours, proteins were obtained, and signaling was analyzed through western blot (A in FIG. 4). A PKC inhibitor (Go6983, 1 ug/mL) was pre-treated to MSC for 1 hour, and after PMA was treated, proteins were obtained after 24 hours, and signaling was analyzed through western blot (B in FIG. 4). […] Then, the level of IgM in the supernatant was measured by ELISA (C in FIG. 4). The mRNA levels of the surface molecules of the PMA-treated MSCs were analyzed via RT-PCR (D in FIG. 4). […]

MSC [1] = assay: Chemokines of MSC by RT-PCR and ELISA; type: cell-based, human; settings: MSC treated with PMA; mRNA (RT-PCR) and protein (ELISA)
Description: Cells were treated with Trypsin-EDTA (Gibco) at […] at a time point when the confluency of 70% to 80% was reached, followed by culturing under a condition of 5% CO2 and 37° C. After 24 hours of material treatment, the cells were recovered, and the total RNA was isolated from the cells using the TRIZOL reagent (invitrogen, MD, USA), and the total RNA was quantified by absorbance measurement at 260 nm.
A total RNA concentration of 0.3 μg was used, and it was synthesized at 42° C. for 1 hour and at 95° C. for 5 minutes. Polymerase chain reaction was performed using 3 μL of synthesized cDNA and 10 pM of a primer. […]
(§1) The expression levels of mRNA for FasL, PD-L1, PD-L2, ICAM1, VCAM1, β-actin, IFN-γ, TNF-α, IL-12, COX-2, iNOS, IDO, TGF-β, CCL2, CCL3, CXCL10, and CXCL12 were analyzed by quantitative real-time PCR (qPCR). The relative mRNA amount of each sample was calculated based on a threshold cycle (Ct) compared to the threshold cycle (Ct) of β-actin, which is a housekeeping gene.
The chemokines of MSC were analyzed by RT-PCR (A in FIG. 2) and ELISA (B in FIG. 2) at mRNA and protein levels, respectively. […] The migration of B cells with respect to MSC was measured using a transwell, MSCs were seeded in the lower well, and B cells were seeded in the upper well. […]

MSC [2] = assay: Surface molecules of PMA-treated MSC by RT-PCR and FACS; type: cell-based, human; settings: PMA treated to MSC, RT-PCR
Description: as §1
PMA was treated to MSC, and after 24 hours, proteins were obtained, and signaling was analyzed through western blot (A in FIG. 4). A PKC inhibitor (Go6983, 1 ug/mL) was pre-treated to MSC for 1 hour, and after PMA was treated, proteins were obtained after 24 hours, and signaling was analyzed through western blot (B in FIG. 4). After MSC was pretreated with the PKC inhibitor (Go6983, 1 ug/mL) for 1 hour and PMA was treated, B cells (1×10^5 cells/well) that were isolated from PBMC and PMA-treated MSCs (1×10^3 cells/well) were co-cultured with ODN for 72 hours. Then, the level of IgM in the supernatant was measured by ELISA (C in FIG. 4). The mRNA levels of the surface molecules of the PMA-treated MSCs were analyzed via RT-PCR (D in FIG. 4). The expressions of PD-L1 of the PMA-treated MSC and PD1 of the B cells were analyzed through FACS (E in FIG. 4). After treating the FasL blocking Ab (10 ug/mL) (F) and the PD-L1 blocking Ab (10 ug/mL) (G) to MSCs and adding PMA, MSCs and B cells were cultured with ODN for 72 hours, and then, the IgM level in the supernatant was measured by ELISA. The PMA-treated MSCs were treated with siRNA to confirm […] at the mRNA level via RT-PCR. After the PMA-treated MSCs, in which PD-L1 was knocked down, and B cells were cultured with ODN for 72 hours, the IgM level in the supernatant was measured by ELISA (H in FIG. 4). PMA was treated to the MSCs, and after 24 hours, the total RNA was obtained, and soluble factors were analyzed via RT-PCR (I in FIG. 4).

B cells = assay: Co-culture of B cells isolated from PBMC with hMSC and ODN, IgM in supernatant by ELISA; type: cell-based; settings: screening of 20 types of chemicals treated to human MSC
Description: Human mesenchymal stern cells (MSC) were obtained from hone marrow (BM) cells of human tibiae and femurs. BM cells were cultured in α-MEM medium including 10% fetal bovine serum (FBS), 2 mM L-glutamine, and penicillin/streptomycin under a condition of 37° C. and 5% CO2. Non-adherent cells were removed on day 1, and adhered cells were cultured with medium replenishment every 3 days and used between day 17 and day 20.
As substances used for the pretreatment condition for hMSC, PMA (10 ng/mL, 24-hour treatment, Sigma), I3A (10 μg/mL, 24-hour treatment, Sigma), and IFN-γ (10 ng/mL, 7-day treatment, Sigma) were used.
IFN-γ measurement'as performed according to the test method provided by R&D (#DY285-05), and for IgM, the IgM ELISA kit (eBioscience, Vienna, Austria) was used for measurement. […] Finally, the value was measured at 450 nm to 570 nm.
After B cells (1×10^5 cells/well) isolated from peripheral blood mononuclear cells (PBMC) and PMA-treated hMSC (1×10^3 cells/well) were co-cultured for 72 hours with CpG oligodeoxynucleotides (ODN, 5 μg/mL), the level of IgM in the supernatant was measured by ELISA (A in FIG. 1). T cells (1×10^5 cells/well) isolated from PBMC and PMA-treated hMSCs×10^3 cells/well) were co-cultured for 72 hours with phytohemagglutinin (PHA, 5 ug/mL), and the level of IFN-γ in the supernatant was measured by ELISA (B in FIG. 1). […]

CCCCCCCCCCCCCC(=O)O[C@@H]1[C@@H](C)[C@@]2(O)[C@@H](C=C(CO)C[C@]3(O)C(=O)C(C)=C[C@@H]23)[C@@H]2C(C)(C)[C@]12OC(C)=O [PMA, phorbol myristate acetate]
PKC-α and δ in the cytoplasm of MSC (PKC-α and δ): transferred to the cell membrane | phosphorylation of ERK in MSC (PKC-α and δ): increased | expression of CXCL10 in MSC (MSC [1]): increased | FasL expression in MSC (MSC [2]): expressed | PD-L2 expression in MSC (MSC [2]): expressed | PD-L1 expression in MSC (MSC [2]; FACS): expressed | human B cell function (B cells): inhibits
